Experimental data reported in US10590140B2, “Tetrahydropyrimidodiazepine and dihydropyridodiazepine compounds for treating pain and pain related conditions” (ESTEVE PHARMACEUTICALS, S.A., priority 2016, dated 2020).
Like-named read-outs stand apart in the source and are kept apart here.

Assays:
[1] = target: human norepinephrine transporter (NET) (Homo sapiens (Human), UniProt P23975); assay: Binding assay to human norepinephrine transporter (NET) ([3H]-Nisoxetin); details: Table 2, dual compounds; [3H]-Nisoxetin binding
In short: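 NET-enriched membranes (5 μg) incubated with 5 nM [3H]-nisoxetin in 50 mM Tris-HCl, 120 mM NaCl, 5 mM KCl, pH 7.4, 60 min at 4 °C. Bound ligand separated by filtration on PEI-soaked GF/C and counted by scintillation; nonspecific binding defined with 1 μM competitor.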

[2] = target: human α2δ-1 subunit of Cav2.2 calcium channel (Homo sapiens (Human), UniProt P54289); assay: Binding assay to human α2δ-1 subunit of Cav2.2 calcium channel ([3H]-Gabapentin); details: read-out: Ki (nM) α2δ-1
In short: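 Radioactivity on dried GF/C filters quantified by scintillation after filtration and three cold Tris-HCl (pH 7.4) washes. Incubation ran 60 min at 27° C with [3H]-gabapentin; 10 μM pregabalin gave nonspecific binding.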

[3] = Table 2, dual compounds, [3H]-Gabapentin binding
[4] = binding to α2δ-1, [3H]-Gabapentin

human α2δ-1 subunit of Cav2.2 calcium channel, sequence (P54289 25-1103): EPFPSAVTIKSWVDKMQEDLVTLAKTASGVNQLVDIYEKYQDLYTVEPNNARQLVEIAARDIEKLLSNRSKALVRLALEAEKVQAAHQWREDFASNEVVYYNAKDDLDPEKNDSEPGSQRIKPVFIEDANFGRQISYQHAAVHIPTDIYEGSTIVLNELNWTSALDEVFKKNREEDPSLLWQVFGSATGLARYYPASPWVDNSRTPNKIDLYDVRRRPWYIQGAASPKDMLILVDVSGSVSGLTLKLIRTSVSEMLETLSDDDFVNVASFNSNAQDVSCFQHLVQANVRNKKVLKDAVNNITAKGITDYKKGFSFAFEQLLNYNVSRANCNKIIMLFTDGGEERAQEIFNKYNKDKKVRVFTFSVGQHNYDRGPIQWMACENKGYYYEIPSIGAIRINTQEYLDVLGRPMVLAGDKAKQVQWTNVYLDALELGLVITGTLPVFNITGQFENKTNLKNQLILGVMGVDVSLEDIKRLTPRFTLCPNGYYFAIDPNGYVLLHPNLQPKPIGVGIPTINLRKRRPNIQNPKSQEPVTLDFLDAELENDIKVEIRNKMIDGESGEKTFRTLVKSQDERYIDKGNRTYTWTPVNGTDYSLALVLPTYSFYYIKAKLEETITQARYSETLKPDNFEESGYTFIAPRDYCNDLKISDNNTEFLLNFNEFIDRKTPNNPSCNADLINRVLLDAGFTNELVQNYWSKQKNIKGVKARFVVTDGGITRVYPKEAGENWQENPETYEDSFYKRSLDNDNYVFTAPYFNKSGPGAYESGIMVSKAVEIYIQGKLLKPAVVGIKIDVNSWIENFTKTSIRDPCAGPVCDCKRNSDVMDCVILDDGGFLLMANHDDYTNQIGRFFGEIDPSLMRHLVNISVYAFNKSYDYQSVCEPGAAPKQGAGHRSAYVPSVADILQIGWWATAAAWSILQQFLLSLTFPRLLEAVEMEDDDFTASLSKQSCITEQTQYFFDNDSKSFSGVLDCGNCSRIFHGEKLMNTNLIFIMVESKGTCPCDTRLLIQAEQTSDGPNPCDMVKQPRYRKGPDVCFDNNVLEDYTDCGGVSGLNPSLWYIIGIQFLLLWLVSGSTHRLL
human norepinephrine transporter (NET), sequence (P23975 whole entry): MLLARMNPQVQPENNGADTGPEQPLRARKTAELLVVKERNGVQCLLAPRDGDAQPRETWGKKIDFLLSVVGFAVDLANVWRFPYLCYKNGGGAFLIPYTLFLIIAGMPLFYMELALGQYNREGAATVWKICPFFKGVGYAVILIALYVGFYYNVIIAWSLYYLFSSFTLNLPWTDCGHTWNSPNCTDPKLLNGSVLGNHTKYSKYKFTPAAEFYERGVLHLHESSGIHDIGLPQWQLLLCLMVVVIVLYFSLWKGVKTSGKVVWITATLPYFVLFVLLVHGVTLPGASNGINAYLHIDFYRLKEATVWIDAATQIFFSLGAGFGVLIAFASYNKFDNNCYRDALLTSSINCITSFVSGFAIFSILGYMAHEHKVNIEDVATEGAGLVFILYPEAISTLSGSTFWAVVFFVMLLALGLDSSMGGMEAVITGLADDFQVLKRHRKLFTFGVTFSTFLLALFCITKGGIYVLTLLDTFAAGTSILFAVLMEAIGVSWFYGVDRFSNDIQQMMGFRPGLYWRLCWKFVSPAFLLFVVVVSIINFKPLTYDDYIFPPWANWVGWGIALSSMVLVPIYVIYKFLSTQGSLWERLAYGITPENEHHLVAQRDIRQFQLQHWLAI

Compound `CCc1ncc2c(n1)N(C)CCN(Cc1ccc(OC(CCNC)c3ccccc3)cc1)C2=O` (stereo not drawn) [Example 426, 2-ethyl-9-methyl-6-(4-(3-(methylamino)-1-phenylpropoxy)benzyl)-6,7,8,9-tetrahydro-5H-pyrimido[4,5-e][1,4]diazepin-5-one] has a Ki [1] of less than 100 nM, a Ki [2, 3] of 500 to 3000 nM and a Ki [2, 4] of 500 to 3000 nM.

`CCNc1ncc2c(n1)N(C)CCN(c1cccc(-n3cnc(CN(C)Cc4ccccc4)c3)c1)C2=O` [Example 253, 6-(3-(4-((benzyl(methyl)amino)methyl)-1H-imidazol-1-yl)phenyl)-2-(ethylamino)-9-methyl-6,7,8,9-tetrahydro-5H-pyrimido[4,5-e][1,4]diazepin-5-one] was tested, and the Ki [1] was 100 to 500 nM, the Ki [2, 3] was 100 to 500 nM and the Ki [2, 4] was 100 to 500 nM.

With `CNCCC(OCc1cccc(N2CCN(C)c3nc(N(C)Cc4ccccn4)ncc3C2=O)c1)c1ccccc1` (stereo not drawn) [Example 336, 9-methyl-2-(methyl(pyridin-2-ylmethyl)amino)-6-(3-((3-(methylamino)-1-phenylpropoxy)methyl)phenyl)-6,7,8,9-tetrahydro-5H-pyrimido[4,5-e][1,4]diazepin-5-one] the Ki [1] was 100 to 500 nM, the Ki [2, 3] was 500 to 3000 nM and the Ki [2, 4] was 500 to 3000 nM.

`CNCC[C@@H](OCc1cccc(N2CCN(C)c3nc(N(C)C)ncc3C2=O)c1)c1ccccc1` [Example 196, (R)-2-(dimethylamino)-9-methyl-6-(3-((3-(methylamino)-1-phenylpropoxy)methyl)phenyl)-6,7,8,9-tetrahydro-5H-pyrimido[4,5-e][1,4]diazepin-5-one] showed a Ki [1] of 500 to 1000 nM, a Ki [2, 3] of 500 to 3000 nM and a Ki [2, 4] of 500 to 3000 nM.

For `CNCCC(OCc1cccc(N2CCN(C)c3nc(C(F)(F)F)ncc3C2=O)c1)c1cccs1` (stereo not drawn) [Example 330, 9-methyl-6-(3-((3-(methylamino)-1-(thiophen-2-yl)propoxy)methyl)phenyl)-2-(trifluoromethyl)-6,7,8,9-tetrahydro-5H-pyrimido[4,5-e][1,4]diazepin-5-one], the Ki [1] was 100 to 500 nM, the Ki [2, 3] was 500 to 3000 nM and the Ki [2, 4] was 500 to 3000 nM.

`CCNc1cc2c(cn1)C(=O)N(c1cccc(OC(CCNC)c3ccccc3)c1)CCN2C` (stereo not drawn) [Example 198, 8-(ethylamino)-1-methyl-4-(3-(3-(methylamino)-1-phenylpropoxy)phenyl)-1,2,3,4-tetrahydro-5H-pyrido[4,3-e][1,4]diazepin-5-one] showed a Ki [1] of 100 to 500 nM, a Ki [2, 3] of 500 to 3000 nM and a Ki [2, 4] of 500 to 3000 nM.

Work on `CNCCC(Oc1ccc(CN2CCN(C)c3nc(OC)ncc3C2=O)cc1)c1sccc1C` (stereo not drawn) [Example 388, 2-methoxy-9-methyl-6-(4-(3-(methylamino)-1-(3-methylthiophen-2-yl)propoxy)benzyl)-6,7,8,9-tetrahydro-5H-pyrimido[4,5-e][1,4]diazepin-5-one] yielded a Ki [1] of less than 100 nM, a Ki [2, 3] greater than 3000 nM and a Ki [2, 4] greater than 3000 nM.

`CCNc1ncc2c(n1)N(C)CCN(c1cccc(-n3cc(CN(C)Cc4ccccc4)nn3)c1)C2=O` [Example 243, 6-(3-(4-((benzyl(methyl)amino)methyl)-1H-1,2,3-triazol-1-yl)phenyl)-2-(ethylamino)-9-methyl-6,7,8,9-tetrahydro-5H-pyrimido[4,5-e][1,4]diazepin-5-one] gave a Ki [1] of less than 100 nM, a Ki [2, 3] of 500 to 3000 nM and a Ki [2, 4] of 500 to 3000 nM.

Compound `CNCC[C@@H](OCc1cccc(N2CCN(C)c3nc(N(C)Cc4ccccn4)ncc3C2=O)c1)c1ccccc1` [Example 341, (R)-9-methyl-2-(methyl(pyridin-2-ylmethyl)amino)-6-(3-((3-(methylamino)-1-phenylpropoxy)methyl)phenyl)-6,7,8,9-tetrahydro-5H-pyrimido[4,5-e][1,4]diazepin-5-one] has a Ki [1] of 100 to 500 nM, a Ki [2, 3] of 100 to 500 nM and a Ki [2, 4] of 100 to 500 nM.

`CNCC(OCc1cccc(CN2CCN(C)c3nc(SC)ncc3C2=O)c1)c1ccccc1` (stereo not drawn) [Example 372, 9-methyl-6-(3-((2-(methylamino)-1-phenylethoxy)methyl)benzyl)-2-(methylthio)-6,7,8,9-tetrahydro-5H-pyrimido[4,5-e][1,4]diazepin-5-one] gave a Ki [1] of 100 to 500 nM, a Ki [2, 3] greater than 3000 nM and a Ki [2, 4] greater than 3000 nM.

`CCc1ncc2c(n1)N(C)CCN(c1cccc(COC(CCNC)c3ccccc3)c1)C2=O` (stereo not drawn) [Example 354, 2-ethyl-9-methyl-6-(3-((3-(methylamino)-1-phenylpropoxy)methyl)phenyl)-6,7,8,9-tetrahydro-5H-pyrimido[4,5-e][1,4]diazepin-5-one] gave a Ki [1] of 100 to 500 nM, a Ki [2, 3] of 500 to 3000 nM and a Ki [2, 4] of 500 to 3000 nM.

Compound `CCNc1ncc2c(n1)N(C)CCN(c1cccc(OCCN(C)Cc3ccccc3)c1)C2=O` [Example 264, 6-(3-(2-(benzyl(methyl)amino)ethoxy)phenyl)-2-(ethylamino)-9-methyl-6,7,8,9-tetrahydro-5H-pyrimido[4,5-e][1,4]diazepin-5-one] has a Ki [1] of 100 to 500 nM, a Ki [2, 3] of 100 to 500 nM and a Ki [2, 4] of 100 to 500 nM.

Compound `CNCCC(OCc1ccc(CN2CCN(C)c3nc(SC)ncc3C2=O)cc1)c1ccccc1` (stereo not drawn) [Example 368, 9-methyl-6-(4-((3-(methylamino)-1-phenylpropoxy)methyl)benzyl)-2-(methylthio)-6,7,8,9-tetrahydro-5H-pyrimido[4,5-e][1,4]diazepin-5-one] has a Ki [1] of 100 to 500 nM, a Ki [2, 3] greater than 3000 nM and a Ki [2, 4] greater than 3000 nM.

In the case of `CCNc1ncc2c(n1)N(C)CCN(Cc1ccc(OC(CCNC)c3ccccc3)cc1)C2=O` (stereo not drawn) [Example 408, 2-(ethylamino)-9-methyl-6-(4-(3-(methylamino)-1-phenylpropoxy)benzyl)-6,7,8,9-tetrahydro-5H-pyrimido[4,5-e][1,4]diazepin-5-one], the Ki [1] is reported as less than 100 nM, the Ki [2, 3] is reported as 500 to 3000 nM and the Ki [2, 4] is reported as 500 to 3000 nM.

With `CNCC[C@@H](OCc1cccc(N2CCN(C)c3nc(OC)ncc3C2=O)c1)c1ccccc1` [Example 204, (R)-2-methoxy-9-methyl-6-(3-((3-(methylamino)-1-phenylpropoxy)methyl)phenyl)-6,7,8,9-tetrahydro-5H-pyrimido[4,5-e][1,4]diazepin-5-one] the Ki [1] was 100 to 500 nM, the Ki [2, 3] was 500 to 3000 nM and the Ki [2, 4] was 500 to 3000 nM.

`CCNc1ncc2c(n1)N(C)CCN(c1ccc(COC(CCNC)c3cccs3)cc1)C2=O` (stereo not drawn) [Example 348, 2-(ethylamino)-9-methyl-6-(4-((3-(methylamino)-1-(thiophen-2-yl)propoxy)methyl)phenyl)-6,7,8,9-tetrahydro-5H-pyrimido[4,5-e][1,4]diazepin-5-one] gave a Ki [1] of 100 to 500 nM, a Ki [2, 3] greater than 3000 nM and a Ki [2, 4] greater than 3000 nM.

`CNCCC(OCc1ccc(N2CCN(C)c3nc(C)ncc3C2=O)cc1)c1ccccc1` (stereo not drawn) [Example 353, 2,9-dimethyl-6-(4-((3-(methylamino)-1-phenylpropoxy)methyl)phenyl)-6,7,8,9-tetrahydro-5H-pyrimido[4,5-e][1,4]diazepin-5-one] showed a Ki [1] of less than 100 nM, a Ki [2, 3] greater than 3000 nM and a Ki [2, 4] greater than 3000 nM.

In the case of `CNCCC(OCc1cccc(N2CCN(C)c3nc(SC)ncc3C2=O)c1)c1cccs1` (stereo not drawn) [Example 208, 9-Methyl-6-(3-((3-(methylamino)-1-(thiophen-2-yl)propoxy)methyl)phenyl)-2-(methylthio)-6,7,8,9-tetrahydro-5H-pyrimido[4,5-e][1,4]diazepin-5-one], the Ki [1] is reported as 500 to 1000 nM, the Ki [2, 3] is reported as 500 to 3000 nM and the Ki [2, 4] is reported as 500 to 3000 nM.

For `CSc1ncc2c(n1)N(C)CCN(c1cccc(COC3(c4ccccc4)CCN(C)CC3)c1)C2=O` [Example 271, 9-methyl-6-(3-(((1-methyl-4-phenylpiperidin-4-yl)oxy)methyl)phenyl)-2-(methylthio)-6,7,8,9-tetrahydro-5H-pyrimido[4,5-e][1,4]diazepin-5-one], the Ki [1] was greater than 1000 nM, the Ki [2, 3] was greater than 3000 nM and the Ki [2, 4] was greater than 3000 nM.

Work on `CNC(COCc1cccc(N2CCN(C)c3nc(SC)ncc3C2=O)c1)c1ccccc1` (stereo not drawn) [Example 167, 9-methyl-6-(3-((2-(methylamino)-2-phenylethoxy)methyl)phenyl)-2-(methylthio)-6,7,8,9-tetrahydro-5H-pyrimido[4,5-e][1,4]diazepin-5-one] yielded a Ki [1] greater than 1000 nM, a Ki [2, 3] greater than 3000 nM and a Ki [2, 4] greater than 3000 nM.

With `CCNc1ncc2c(n1)N(C)CCN(c1cccc(COCC(NC)c3ccccc3)c1)C2=O` (stereo not drawn) [Example 166, 2-(ethylamino)-9-methyl-6-(3-((2-(methylamino)-2-phenylethoxy)methyl)phenyl)-6,7,8,9-tetrahydro-5H-pyrimido[4,5-e][1,4]diazepin-5-one] the Ki [1] was 500 to 1000 nM, the Ki [2, 3] was 500 to 3000 nM and the Ki [2, 4] was greater than 3000 nM.

`CNCC[C@@H](OCc1cccc(N2CCN(C)c3nc(N(C)Cc4cccnc4)ncc3C2=O)c1)c1ccccc1` [Example 342, (R)-9-methyl-2-(methyl(pyridin-3-ylmethyl)amino)-6-(3-((3-(methylamino)-1-phenylpropoxy)methyl)phenyl)-6,7,8,9-tetrahydro-5H-pyrimido[4,5-e][1,4]diazepin-5-one] gave a Ki [1] of 100 to 500 nM, a Ki [2, 3] of 100 to 500 nM and a Ki [2, 4] of 100 to 500 nM.

`CNCC[C@H](Oc1ccc(CN2CCN(C)c3ccncc3C2=O)cc1)c1cccs1` [Example 382, (S)-1-methyl-4-(4-(3-(methylamino)-1-(thiophen-2-yl)propoxy)benzyl)-1,2,3,4-tetrahydro-5H-pyrido[4,3-e][1,4]diazepin-5-one] showed a Ki [1] of 100 to 500 nM, a Ki [2, 3] of 100 to 500 nM and a Ki [2, 4] of 100 to 500 nM.

Work on `CCNc1ncc2c(n1)N(C)CCN(c1cccc(OC(CNC)c3ccccc3)c1)C2=O` (stereo not drawn) [Example 154, 2-(ethylamino)-9-methyl-6-(3-(2-(methylamino)-1-phenylethoxy)phenyl)-6,7,8,9-tetrahydro-5H-pyrimido[4,5-e][1,4]diazepin-5-one] yielded a Ki [1] of 100 to 500 nM, a Ki [2, 3] of 500 to 3000 nM and a Ki [2, 4] of 500 to 3000 nM.

`CNCCC(Oc1ccc(CN2CCN(C)c3ncncc3C2=O)cc1)c1ccccc1` (stereo not drawn) [Example 430, 9-methyl-6-(4-(3-(methylamino)-1-phenylpropoxy)benzyl)-6,7,8,9-tetrahydro-5H-pyrimido[4,5-e][1,4]diazepin-5-one] gave a Ki [1] of less than 100 nM, a Ki [2, 3] of 500 to 3000 nM and a Ki [2, 4] of 500 to 3000 nM.
